From patent publication US20080227131A1, “Signalling Assay and Cell Line” (GE HEALTHCARE UK LIMITED, priority 2005, published 2008)

Tests used:
[1] = test system: EGFP-MAPK14 fusion protein; assay: EGFP-MAPK14 fusion protein translocation assay for activation of MAPK14 (N:C ratio) in stable SW1353 cells; assay type: cell-based, human
Protocol: During assay preparation and throughout the assay, background stress response was kept to a minimum; microplates, cells and solutions were maintained at 37° C., 5% CO2, and 95% relative humidity. All inhibitors and activators were added to cells in complete medium.
50 μl of the prepared test activator in complete medium and control compounds were added and incubated at 37° C., 5% CO2, and 95% relative humidity. For fixed cell assays, 150 μl 10% (v/v) formalin (4% formaldehyde) was added at room temperature for 20 min. Cells were washed twice with PBS and nuclei were stained with Hoechst (10 μM) in PBS prior to imaging.

[2] = test system: phospho-(Thr180/Tyr182)-p38(MAPK14); assay: Anti-phospho-p38 immunofluorescence assay in SW1353 cells; assay type: cell-based, human; details: 30 min treatment, fixed; n=8; read-out: EC50, immunofluorescence assay (Alexa647-anti-phospho-p38 signal)
Protocol: The temporal and biological response of the EGFP-MAPK14 assay was validated through co-analysis with a recognised assay for p38 (MAPK14) activation—an immunofluorescence assay targeting phospho-(Thr180/Tyr182)-p38(MAPK14). […] Cells were then washed (1% goat serum, 0.1% Tween in PBS), permeabilized (0.5% Triton X in wash buffer) for 15 minutes at room temperature and washed again. 50 μl of rabbit anti-phospho-p38 antibody at 1:200 (Zymed Laboratories, San Francisco, USA) was added and incubated for 1 hr at room temperature prior to two washes and the addition of 50 μl of goat-anti rabbit Alexa647 antibody (Molecular Probes) at 1:200 and incubation for 1 hr at room temperature. After 2 washes, cells were imaged in PBS to detect Hoechst, EGFP-MAPK14 and Alexa647 on an IN Cell Analyzer 1000 instrument.

Compound: COc1ccc(C[C@H]2NC[C@H](O)[C@H]2OC(C)=O)cc1 [anisomycin]
- Nuclear accumulation of EGFP-MAPK14 fusion protein ([1]; live cells, 300 nM for 15 mins): clearly demonstrate significant nuclear accumulation

Compound: OC[C@@H](O)[C@@H](O)[C@H](O)[C@@H](O)CO [sorbitol]
- Duration of stimulation after initial exposure ([1]; live cells, 0.4 M): at least 90 minutes
- Nuclear accumulation of EGFP-MAPK14 fusion protein ([1]; live cells, 0.4 M for 15 mins): clearly demonstrate nuclear accumulation

Compound: IL-1β
- EC50 [2]: 7.82 pM
- EC80 ([1]; concentration used as activator in the inhibitor assay): 12 pM
- Translocation of EGFP-MAPK14 signal from cytoplasm to nucleus ([1]; fixed cell assay, 316 pM for 30 minutes (FIG. 19)): clear translocation
- Translocation of EGFP-MAPK14 signal from cytoplasm to nucleus ([1]; living cells, 12 pM): clear translocation
